From PMC3787017, “Relative Contributions of Norepinephrine and Serotonin Transporters to Antinociceptive Synergy between Monoamine Reuptake Inhibitors and Morphine in the Rat Formalin Model” (PLoS ONE, 2013)
Read-outs that look alike come from different tables or passages of the source.

Key:
SERT [1] = details: therapeutic dose of 60 mg; cited from earlier work
rat formalin model [2] = system: rat formalin model
[3] = Binding in rat brain homogenates, equilibrium dialysis; assay type: in vitro ADME; details: brain homogenate, equilibrium dialysis 5 hours 37°C, Theravance, Inc., unpublished data
Description: (§1) The in vitro unbound fraction of reuptake inhibitors in rat brain homogenates (5 µM) and in rat plasma protein (1 µM) was evaluated using equilibrium dialysis using the HT-Dialysis device (Gayles-Ferry, CT). Brain homogenate or plasma was spiked with test compounds and dialyzed against blank PBS for 5 hours at 37°C. The matrices from both sides of the dialysis membranes were equalized and extracted with acetonitrile. Unbound fractions for each compound were calculated as the ratio of peak areas from the PBS side to peak areas from the tissue or plasma side. Peak areas were corrected for dilution of the tissue made prior to spiking compound. Quantification was via LC/MS/MS.

[4] = Plasma and brain unbound concentrations by LC/MS/MS; details: rat, 75 min post-dosing
Description: Plasma and brain concentrations of reuptake inhibitors were determined by LC/MS/MS. Samples (10–20 µL) were injected in a Hypurity C18 column (50×2.1 mm; 3 µM) with a flow rate of 0.5 mL/min. […] Various gradient elutions were used and the mass spectrometers (Sciex API5000 and API4000; Applied Biosystems, Foster City, CA) were operated in positive ion multiple reaction monitoring mode.
For the pharmacokinetic and bioanalytical analyses, free plasma and free brain concentrations were calculated using the in vitro unbound fractions in rat plasma and brain homogenates, respectively.

[5] = Protein binding in rat plasma, equilibrium dialysis; assay type: in vitro ADME; details: equilibrium dialysis 5 hours 37°C, Theravance, Inc., unpublished data
Description: as §1

rat formalin model [6] = test: animal or person; details: read-out: ED50, antinociception, drug alone
rat RotaRod test = details: morphine 3 mg/kg SC alone, 60 min post-dose; statistically significant
SERT [7] = target: T1, SERT (Rattus norvegicus, UniProt P31652); details: summary over 3 and 10 mg/kg IP (discussion)
T1 sequence (P31652 whole entry): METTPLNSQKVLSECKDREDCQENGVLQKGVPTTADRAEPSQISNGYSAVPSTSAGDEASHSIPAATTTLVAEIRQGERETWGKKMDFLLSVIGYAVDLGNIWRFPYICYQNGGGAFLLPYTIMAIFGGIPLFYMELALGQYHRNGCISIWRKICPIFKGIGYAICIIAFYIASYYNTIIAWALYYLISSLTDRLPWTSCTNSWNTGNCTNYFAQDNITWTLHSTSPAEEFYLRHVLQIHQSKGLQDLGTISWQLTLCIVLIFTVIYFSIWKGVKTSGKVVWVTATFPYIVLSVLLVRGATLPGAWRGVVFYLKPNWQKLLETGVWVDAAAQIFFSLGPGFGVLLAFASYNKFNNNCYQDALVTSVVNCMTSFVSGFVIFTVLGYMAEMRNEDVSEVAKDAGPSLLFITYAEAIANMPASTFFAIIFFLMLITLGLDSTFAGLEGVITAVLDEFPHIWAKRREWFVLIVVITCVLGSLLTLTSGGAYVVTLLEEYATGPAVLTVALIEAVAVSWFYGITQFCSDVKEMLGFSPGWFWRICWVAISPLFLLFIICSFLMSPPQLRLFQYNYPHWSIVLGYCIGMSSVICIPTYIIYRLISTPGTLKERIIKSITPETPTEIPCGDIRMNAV
Description: (§2) Ex vivo occupancy studies were performed similarly to those described previously [31]. At a single time point at the conclusion of phase 2A (75 min post-dose), a 5 mm^2 piece of frontal cortex was dissected, frozen rapidly, and stored at −80°C until use. Cortical crude homogenates were prepared and the initial rates (vi(vehicle) or vi, respectively) of [^3H]-citalopram (SERT) or [^3H]-nisoxetine (NET) binding determined over a 3-min time course. The % NET or SERT transporter occupancy for compound-dosed animals was calculated using the following equation: 100*(1−vi)/average vi(vehicle).

SERT [8] = target: T1, SERT; test: in vivo; details: ip, read-out: SERT occupancy ex vivo
Description: as §2

NET = NET (Rattus norvegicus, UniProt Q63380); test: in vivo; details: ip, read-out: NET occupancy ex vivo
Sequence of NET (Q63380 1-617): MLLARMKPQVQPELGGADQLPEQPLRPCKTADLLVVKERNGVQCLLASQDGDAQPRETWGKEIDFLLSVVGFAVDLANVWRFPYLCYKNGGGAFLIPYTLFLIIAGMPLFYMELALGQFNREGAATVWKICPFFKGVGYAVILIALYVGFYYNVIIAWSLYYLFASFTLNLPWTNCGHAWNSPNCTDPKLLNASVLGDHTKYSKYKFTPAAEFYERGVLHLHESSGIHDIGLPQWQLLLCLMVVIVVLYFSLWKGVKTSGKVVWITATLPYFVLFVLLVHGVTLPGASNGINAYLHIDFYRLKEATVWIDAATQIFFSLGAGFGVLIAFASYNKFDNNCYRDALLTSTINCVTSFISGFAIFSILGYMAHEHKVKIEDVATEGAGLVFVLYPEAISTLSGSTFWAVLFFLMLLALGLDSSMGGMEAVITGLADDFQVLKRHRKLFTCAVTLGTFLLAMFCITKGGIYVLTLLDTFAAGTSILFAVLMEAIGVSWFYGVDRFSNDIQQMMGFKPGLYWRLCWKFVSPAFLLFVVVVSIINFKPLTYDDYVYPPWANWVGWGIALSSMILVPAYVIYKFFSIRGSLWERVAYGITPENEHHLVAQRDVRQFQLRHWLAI
Description: as §2

[9] = 10 mg/kg IP, drug alone, mean ± SEM

## CNCC[C@H](Oc1cccc2ccccc12)c1cccs1 [duloxetine]
SERT [1]
  occupancy of SERT by positron emission tomography: near-maximal occupancy
Rat formalin model [2]; 5 mg/kg IP, drug alone, mean ± SEM
  inhibition of flinching: 19±12%
Rat formalin model [2]; higher doses of duloxetine, antinociceptive in the absence of morphine, data not shown
  interaction with morphine at higher doses: exhibited additivity with morphine
[3]
  fraction unbound at 5 h, 5 µM: 0.007
[4]; brain, intraperitoneal, 5 mg/kg, [Brain]unbound, duloxetine 5 mg/kg, − ondansetron − morphine
  concentration at 75 min: 13 ± 1.5 ng/g
[4]; brain, intraperitoneal, [Brain]unbound, duloxetine 5 mg/kg + ondansetron 3 + morphine 1 mg/kg
  concentration at 75 min: 16.5 ± 4.1 ng/g
[4]; plasma, intraperitoneal, 5 mg/kg, [Plasma]unbound, duloxetine 5 mg/kg, − ondansetron − morphine
  concentration at 75 min: 4.98 ± 1.4 ng/mL
[4]; plasma, intraperitoneal, [Plasma]unbound, duloxetine 5 mg/kg + ondansetron 3 + morphine 1 mg/kg
  concentration at 75 min: 4.55 ± 0.7 ng/mL
[5]
  fraction unbound at 5 h, 1 µM: 0.031
Rat formalin model [6]
  ED50: 10.9 mg/kg

## CN1CC[C@]23c4c5ccc(O)c4O[C@H]2[C@@H](O)C=C[C@H]3[C@H]1C5 [morphine]
Rat formalin model [2]; 1 mg/kg SC, alone, mean ± SEM
  inhibition of flinching: 18±5%
Rat formalin model [2]; 3 mg/kg SC, alone, mean ± SEM
  inhibition of flinching (decrease in nociceptive behavior): 77%±6
Rat formalin model [6]
  ED50: 2.3 mg/kg
Rat RotaRod test
  reduction in walking time: 65±12%

## CNCC[C@@H](Oc1ccccc1C)c1ccccc1 [atomoxetine]
SERT [7]
  SERT occupancy at doses that exhibited synergy with morphine: 35 to 64%
Rat formalin model [2]; 3 mg/kg IP, drug alone, mean ± SEM
  inhibition of flinching: 4±11%
Rat formalin model [2]; [9]
  inhibition of flinching: 19±6%
[3]
  fraction unbound at 5 h, 5 µM: 0.021
[4]; in vivo, 10 mg/kg, [Brain]unbound, atomoxetine 10 mg/kg, − morphine, mean ± SD
  concentration at 75 min: 58.2 ± 10.9 ng/g
[4]; in vivo, 10 mg/kg, [Plasma]unbound, atomoxetine 10 mg/kg, − morphine, mean ± SD
  concentration at 75 min: 50.9 ± 5.8 ng/mL
[4]; in vivo, [Brain]unbound, atomoxetine 10 mg/kg + morphine 3 mg/kg
  concentration at 75 min: 52.6 ± 14.4 ng/g
[4]; in vivo, [Plasma]unbound, atomoxetine 10 mg/kg + morphine 3 mg/kg
  concentration at 75 min: 57.9 ± 12.5 ng/mL
[5]
  fraction unbound at 5 h, 1 µM: 0.18
Rat formalin model [6]
  ED50: 27.8 mg/kg
SERT [8]
  receptor occupancy at 3 mg/kg: 35 ± 9%
  receptor occupancy at 10 mg/kg: 64 ± 5%

## CCOc1ccccc1O[C@@H](c1ccccc1)[C@@H]1CNCCO1 [esreboxetine]
Rat formalin model [2]; rat, in vivo
  inhibition of flinching: 17±9%
[4]; brain, intraperitoneal, 10 mg/kg, [Brain]unbound, esreboxetine 10 mg/kg, − fluoxetine − morphine
  concentration at 75 min: 20.4 ± 14.4 ng/g
[4]; brain, intraperitoneal, [Brain]unbound, esreboxetine 10 mg/kg + fluoxetine 1 + morphine 1 mg/kg
  concentration at 75 min: 25 ± 5.8 ng/g
[4]; brain, intraperitoneal, [Brain]unbound, esreboxetine 10 mg/kg + morphine 1 mg/kg
  concentration at 75 min: 12.7 ± 9.9 ng/g
[4]; plasma, intraperitoneal, 10 mg/kg, [Plasma]unbound, esreboxetine 10 mg/kg, − fluoxetine − morphine
  concentration at 75 min: 33.4 ± 12.2 ng/mL
[4]; plasma, intraperitoneal, [Plasma]unbound, esreboxetine 10 mg/kg + fluoxetine 1 + morphine 1 mg/kg
  concentration at 75 min: 31.2 ± 8.6 ng/mL
[4]; plasma, intraperitoneal, [Plasma]unbound, esreboxetine 10 mg/kg + morphine 1 mg/kg
  concentration at 75 min: 21 ± 17.7 ng/mL
SERT [8]
  receptor occupancy at 10 mg/kg: 3 ± 5%
NET
  receptor occupancy at 10 mg/kg: 82 ± 5%

## C=CCN1CC[C@]23c4c5ccc(O)c4O[C@H]2C(=O)CC[C@@]3(O)[C@H]1C5 [naloxone]
Rat formalin model [2]; naloxone 5 mg/kg IP, atomoxetine 10 and 30 mg/kg IP
  effect on atomoxetine-induced antinociception: failed to attenuate
Rat formalin model [2]; naloxone 5 mg/kg IP, morphine 3 mg/kg, p<0.001
  effect on morphine-induced antinociception: effectively blocked

## Cc1nccn1CC1CCc2c(c3ccccc3n2C)C1=O (stereo not shown) [ondansetron]
Rat formalin model [2]; rat, in vivo
  antinociceptive activity, alone: did not exhibit antinociceptive activity
  effect on antinociceptive response to duloxetine and morphine: potentiated the antinociceptive response
  effect on antinociceptive response to fluoxetine and morphine: failed to potentiate the antinociceptive response

## CNCCC(Oc1ccc(C(F)(F)F)cc1)c1ccccc1 (stereo not shown) [fluoxetine]
Rat formalin model [2]; [9]
  inhibition of flinching: 9±4%
[3]
  fraction unbound at 5 h, 5 µM: 0.0045
[5]
  fraction unbound at 5 h, 1 µM: 0.067
